Measurements published in patent US6673625B2, “Saccharide sensing molecules having enhanced fluorescent properties” (The Regents of the University of California, priority 1999, dated 2004).

Assays:
[1] = Rehm-Weller estimate of free energy of photoinduced electron transfer (PET); type: physicochemical; details: for ΔGPET: Rehm-Weller estimate; for λ00: average of excitation and emission maxima
Description: The search for new fluorescent glucose transducers based on photoelectron transfer (PET) requires, among other things, an understanding of the electrochemistry of any potential donor-acceptor pair. The free energy of PET (ΔGel) can be calculated using the Rehm-Weller equation shown below:
ΔGel(kcal mol^−1)=23.06[E^0(D^+/D)−E^0(A/A^−)]−wp−wr−ΔG00 where E^0(D^+/D) is the oxidation potential of the donor, E^0(A/A^−) is the reduction potential of the acceptor, and ΔG00 is the free energy corresponding to the equilibrium energy E00 (see e.g. Kavarnos, G. J. In Fundamentals of photoinduced electron transfer, VCH Publishers: New York, N.Y., 1993; p Chapter 1 and Rehm and Weller, Ist. J. Chem. 1970, 8, 259). The quantities wp and wr are Coulombic terms for the products and reactants, and ate found to be small in polar solvents. To simplify predictions, we assume wp and wr to be zero, and estimate E00 as the energy corresponding to [λmax(ex)+λmax(em)]/2 for each fluorophore.
ΔGPET=23.06[E^0(Z^oxidation)−E^0(F^reduction)]−ΔE00],
The electrochemical potentials can be measured using the individual molecular groups before assembling the complete molecule.
Electrochemistry. The search for new fluorescent glucose transducers based on PET requires, among other things, an understanding of the electrochemistry of any potential donor-acceptor pair. The free energy of PET (ΔGel) can be calculated using the Rehm-Weller equation shown in eq 1, where E^0(D^+/D) is the oxidation potential of the […]
ΔGe(kcal mol^−1)=23.06[E^0(D^+/D)−E^0(A/A^−)]−wp−wr−ΔG00 (1) donor, E^0(A/A^−) is the reduction potential of the acceptor, and ΔG00 is the free energy corresponding to the equilibrium energy E00. The quantities wp and wr are Coulombic terms for the products and reactants, and are found to be small in polar solvents. In our case, wr=0 since the reactants are neutral. To simplify predictions, we assume wp to be zero and estimate E00 as the energy corresponding to [λmax(ex)+λmax(em)]/2 for each fluorophore. […]
it is possible to estimate the free energy of photoinduced electron transfer (PET) in these systems (see e.g. Kavamos, G. J. Fundamentals of Photoinduced Electron Transfer, VCH: New York, 1993; pp 37-40). E0(D^+/D) and E^0(A/A^−) correspond to the […] of the electron donor (i.e. amine) and electron acceptor (i.e. fluorophore), respectively. The quantity ΔG00, is the equilibrium energy, which we estimate as the energy corresponding to the equilibrium wavelength λ00. As an estimate of λ00, we use the average of the excitation and emission maxima for each fluorophore. Smaller solvent-dependent work terms for the Coulombic interaction between the reactants and products are left out for simplicity. Since the mechanism of fluorescence switching in these systems depends on PET, this gives us a rough estimate of which fluorophores should give the best response to glucose.

[2] = vs. SCE, literature data for parent complexes; cited from earlier work
[3] = Glucose testing of naphthalimide boronates by fluorescence; details: PBS buffer (pH 7.4)
Description: The fluorescence spectra of compounds 3 have been obtained as a function of increasing glucose concentration. […] These values range from 9% to 16% over the four compounds, with the two lower values coming from the two compounds having secondary amino groups. These low values of fractional switching are more than balanced out by the high quantum yields for compounds 3az and 3cz. As a measure of the total signal increase for each system, the product of quantum yield and fractional fluorescence increase are given in Table 1, showing that 3cz is the most promising sensor candidate of the group, as expected.
(§1) Summarized Syntheses. As the syntheses are described as a series of analogous compounds with general procedures are given below. Cyclic voltammetry was conducted using a glassy carbon working electrode, platinum counter electrode, and Ag/AgCl reference electrode and carried out in a 0.1 M solution of NBu4ClO4 in acetonitrile. Samples for fluorescence were prepared as 1.00 mM stock solutions in MeOH. A 30.0 μL aliquot of solution was then added to 3.000 mL of the appropriate solvent mixture (a combination of methanol and phosphate buffered saline—PBS). Relative quantum yields were determined by the relative output of equimolar solutions of two compounds using 3ay as a reference. Glucose additions were performed by the addition of a concentrated solution of glucose in PBS to a stirred solution of the fluorescent molecule in methanol/PBS.
General. All reactions were performed under an atmosphere of N2, followed by work-up in air. Protected boronate esters were stored under vacuum to prevent slow hydrolysis from atmospheric moisture. Unless stated otherwise, all chemicals were purchased from commercial suppliers. Anhydrous solvents from Aldrich were used for all reactions. Starting compounds known in the art such as N-n-butyl-4-chloronaphthalene-1,8-dicarboximide(1ax), 2,2-dimethylpropane-1,3-diyl[o-(bromomethyl) phenyl]boronate, were prepared by literature methods (see e.g. Daffy et al. Chem-Eur J 1998, 4, 1810-1815; de Silva et al., Chem Rev 1997, 97, 1515-1566). Samples for FT IR spectroscopy were prepared as solutions in CHCl3, and only the C═O stretches are reported here. All mass spectra were obtained using electrospray ionization (ESI/MS) with an ionization potential of 50V and a solvent system consisting of 1% acetic acid in 50/50 methanol/water. Cyclic voltammetry was conducted using a glassy carbon working electrode, platinum counter electrode, and Ag/AgCl reference electrode and carried out in a 0.1 M solution of NBu4ClO4 in acetonitrile. Samples for fluorescence measurements were prepared as 1.00 mM stock solutions in MeOH. […]

[4] = Cyclic voltammetry (glassy carbon, Ag/AgCl reference, 0.1 M NBu4ClO4 in acetonitrile); type: physicochemical; details: for Amine Oxidation Potential E° (D^+/D) / Fluorophore Reduction Potential E° (A/A^−): Ag/AgCl reference; for first oxidation potential (amine) / first reduction potential: vs. Ag/AgCl
Description: Samples for FT IR spectroscopy were prepared as solutions in CHCl3, and only the C═O stretches are reported. Unless otherwise stated, all NMR spectra were recorded at 500 MHz for ^1H and 125 MHz for ^13C at 20-25° C. using CDCl3 as the solvent. Unless stated otherwise, mass spectra were obtained using electrospray ionization (50 V) with a 50/50 methanol/water solvent mixture with ^1% acetic acid added. Cyclic voltammetry was conducted using a glassy carbon working electrode, platinum counter electrode, and Ag/AgCl reference electrode and carried out in a 0.1 M solution of NBu4ClO4 in acetonitrile.
as §1
(§2) General. All reactions were performed under an atmosphere of N2, followed by work-up in air. Protected boronate esters were stored under vacuum to prevent slow hydrolysis from atmospheric moisture. Unless stated otherwise, all chemicals were purchased from commercial suppliers. Anhydrous solvents from Aldrich were used for all reactions. Starting compounds known in the art such as N-n-butyl-4-chloronaphthalene-1,8-dicarboximide(1ax), 2,2-dimethylpropane-1,3-diyl[o-(bromomethyl) phenyl]boronate, were prepared by literature methods (see e.g. Daffy et al. Chem-Eur J 1998, 4, 1810-1815; de Silva et al., Chem Rev 1997, 97, 1515-1566). Samples for FT IR spectroscopy were prepared as solutions in CHCl3, and only the C═O stretches are reported here. All mass spectra were obtained using electrospray ionization (ESI/MS) with an ionization potential of 50V and a solvent system consisting of 1% acetic acid in 50/50 methanol/water. Cyclic voltammetry was conducted using a glassy carbon working electrode, platinum counter electrode, and Ag/AgCl reference electrode and carried out in a 0.1 M solution of NBu4ClO4 in acetonitrile. Samples for fluorescence measurements were prepared as 1.00 mM stock solutions in MeOH. A 30.0 μL aliquot of solution was then added to 3.000 mL of the appropriate solvent mixture (a combination of methanol and phosphate buffered saline—PBS) giving a final concentration of 10.0 μM for each complex. Changes in pH were carried out by the addition of small volumes of concentrated hydrochloric acid, acetic acid, or sodium hydroxide. Glucose additions were performed by the addition of a concentrated solution of glucose in PBS to a stirred solution of fluorophore in a cuvette. Relative quantum yield measurements were carried out by measuring the relative intensities of equimolar solutions (10.0 μM) of two fluorophores. Compound 3ay was used as the reference.

[5] = Fluorescence spectra and relative quantum yields of naphthalimide boronates; type: physicochemical; details: for Emission λmax / Excitation λmax / Relative Quantum Yield: PBS buffer (pH 7.4); for Relative Quantum Yield: equimolar 10.0 μM solutions, 3ay as reference
Description: Sample excitation and emission spectra are shown in FIG. 27 for 3ay and 3cy, along with fluorescence maxima in Table 1. Literature references indicate a higher quantum yield for secondary-amine naphthalimide derivatives than for tertiary amines in otherwise similar compounds. The pragmatic value of this gain was examined, weighing synthetic difficulty against measurable relative quantum yields.
as §1, §2

[6] = Fluorescence pH switching; details: for change in fluorescence: pH changed from 11 to 2
Description: Samples for fluorescence were prepared as 1.00 mM stock solutions in MeOH. A 30.0 μL aliquot of solution was then added to 3.000 mL of the appropriate solvent mixture (a combination of methanol and phosphate buffered saline—PBS) giving a final concentration of 10.0 μM for each complex. […] Glucose additions were performed by the addition of a concentrated solution of glucose in PBS to a stirred solution of fluorophore in a cuvette.

Compound	expected ΔGel ([1]; from literature reduction potentials of parent complexes) [kcal/mol]	reduction potential [2] [V]	ΔGPET [1] [kcal/mol]	λ00 [1] [nm]	Fluorescence Intensity Increase with added glucose (0 to 600 mg dL^−1) [3] [%]	Amine Oxidation Potential E° (D^+/D) [4] [V]	Fluorophore Reduction Potential E° (A/A^−) [4] [V]	Emission λmax [5] [nm]	Excitation λmax [5] [nm]	Relative Quantum Yield [5]	change in quantum yield or wavelength maximum on removal of the THP protecting group [5]	change in fluorescence [6] [%]	first oxidation potential (amine) [4] [V]	first reduction potential [4] [V]	signal increase ([6]; drop from pH 7 to pH 2) [%]
[Cl][Ru][Cl].c1ccc(-c2ccccn2)nc1.c1ccc(-c2ccccn2)nc1.c1ccc(-c2ccccn2)nc1 [[Ru(bpy)3]Cl2, reference compound]	12.5	−1.31													
N-n-Butyl-4-(N′-aminoethylene-N″-ArBmethylamino)naphthalene-1,8-dicarboximide [Compound 3az]			-0.62	485	9	1.05	−1.48	535	435	44.2					
N-(5′-Tetrahydropyranoxypentyl)-4-(N′-aminoethylene-N″-ArBmethylamino)naphthalene-1,8-dicarboximide [Compound 3cz]			-1.2	480	10	1.00	−1.53	525	435	51.2	no significant change				
CCN(CC)Cc1ccnc(-c2cc(C)ccn2)c1.O=S(=O)([O-])C(F)(F)F.[C-]#[O+].[C-]#[O+].[C-]#[O+].[Re+].c1ccncc1 [(bpyCH2NEt2)Re(CO)3(py)](OTf), reference compound]												61	1.35	−1.20	
N-n-Butyl-4-(N′-methylaminoethylene-N″-ArBmethylamino)naphthalene-1,8-dicarboximide [Compound 3ay]			-4.8	478	16	0.91	−1.48	535	420	1					
N-(5′-Tetrahydropyranoxypentyl)-4-(N′-methylaminoethylene-N″-ArBmethylamino)naphthalene-1,8-dicarboximide [Compound 3cy]			-5.5	470	13	0.93	−1.47	525	415	1.32					
Cc1ccnc(-c2cc(CN(C)Cc3ccccc3)ccn2)c1.O=S(=O)([O-])C(F)(F)F.[C-]#[O+].[C-]#[O+].[C-]#[O+].[Re+].c1ccncc1 [[(bpyN)Re(CO)3(py)](OTf)]												930	1.34	−1.20	21
